Experimental findings from patent US7932283B2, “Fungicide N-cyclopropyl-sulfonylamide derivatives” (Bayer Cropscience AG, priority 2006, dated 2011) are described below.

Molecules are shown by their SMILES.

For orientation: chromatographic logP means a lipophilicity value derived from retention on a column. High values mean a more lipophilic compound, low ones a more hydrophilic compound.

A short description of the first data set: logP by HPLC on reversed-phase column (C 18), EEC Directive 79/B31 Annex V.A8, methods A and B. It counts as physicochemical. The note with it: reversed-phase HPLC column (C 18), HPLC reversed-phase C 18, method A: 43° C., 0.1% aqueous phosphoric acid, acetonitrile, linear gradient 10% to 90% acetonitrile. As for the experimental part:
Calibration was carried out using unbranched alkan-2-ones (having 3 to 16 carbon atoms) with known logP values (determination of the logP values by the retention times using linear interpolation between two successive alkanones).
Regarding `O=C(c1cc(Br)c(Br)o1)N(C1CC1)S(=O)(=O)c1ccccc1O` [Compound 1], the chromatographic logP is 3.58.
The same measure, in the same setting: under `Cc1occc1C(=O)N(C1CC1)S(=O)(=O)c1cccc(O)c1` [Compound 3] stands 3.27; under `Cc1occc1C(=O)N(C1CC1)S(=O)(=O)c1ccccc1O` [Compound 4], 2.77.
On the same count and under the same terms, under `Cc1ccsc1C(=O)N(C1CC1)S(=O)(=O)c1cccc(O)c1` [Compound 13] stands 3.64; under `Cc1ccsc1C(=O)N(C1CC1)S(=O)(=O)c1ccccc1O` [Compound 14], 3.12.
`O=C(c1cc(Br)c(Br)s1)N(C1CC1)S(=O)(=O)c1ccccc1O` [Compound 15] came in with a chromatographic logP of 4.07.
On the same count and under the same terms, under `CCOC(=O)c1[nH]c(C)c(C(=O)N(C2CC2)S(=O)(=O)c2cccc(O)c2)c1C` [Compound 29] stands 3.46.
In turn, `CCOC(=O)c1[nH]c(C)c(C(=O)N(C2CC2)S(=O)(=O)c2ccc(C(F)(F)F)cc2)c1C` [Compound 30] had a chromatographic logP of 3.72.
Same read-out and setting: under `CCOC(=O)c1[nH]c(C)c(C(=O)N(C2CC2)S(=O)(=O)c2ccc(O)c(C(F)(F)F)c2)c1C` [Compound 31] stands 4.08.
On to `CCOC(=O)c1[nH]c(C)c(C(=O)N(C2CC2)S(=O)(=O)c2ccc(O)cc2O)c1C` [Compound 32], for which the chromatographic logP worked out at 3.63.
On the same count and under the same terms, as for `CCOC(=O)c1[nH]c(C)c(C(=O)N(C2CC2)S(=O)(=O)c2ccc(C(C)(C)C)cc2)c1C` [Compound 33], the figure is 4.13.
`Cc1nc(C(F)(F)F)c(C(=O)N(C2CC2)S(=O)(=O)c2ccccc2O)s1` [Compound 59] registered a chromatographic logP of 3.2.
The compound `Cc1ncc(C(=O)N(C2CC2)S(=O)(=O)c2cccc(O)c2)s1` [Compound 60] returned a chromatographic logP of 2.8.
`Cc1ncc(C(=O)N(C2CC2)S(=O)(=O)c2ccc(C(F)(F)F)cc2)s1` [Compound 61] showed a chromatographic logP of 3.1.
The same measure, in the same setting: as for `Cc1ncc(C(=O)N(C2CC2)S(=O)(=O)c2ccc(O)c(C(F)(F)F)c2)s1` [Compound 62], the figure is 3.46.
The compound `Cc1ncc(C(=O)N(C2CC2)S(=O)(=O)c2ccc(O)c(O)c2)s1` [Compound 63] showed a chromatographic logP of 3.33.
Same read-out and setting: under `Cc1ncc(C(=O)N(C2CC2)S(=O)(=O)c2ccc(O)cc2O)s1` [Compound 64] stands 2.91; under `Cc1nc(C(=O)N(C2CC2)S(=O)(=O)c2ccc(C(F)(F)F)cc2)cs1` [Compound 68], 3.18; under `Cc1nc(C(=O)N(C2CC2)S(=O)(=O)c2ccc(O)c(C(F)(F)F)c2)cs1` [Compound 69], 3.63.
Take `Cc1nc(C(=O)N(C2CC2)S(=O)(=O)c2ccc(O)c(O)c2)cs1` [Compound 70]: the chromatographic logP came out at 3.46. The chromatographic logP values of the last two compounds are within 0.2 log units of each other.
On the same count and under the same terms, under `Cc1nc(C(=O)N(C2CC2)S(=O)(=O)c2ccc(O)cc2O)cs1` [Compound 71] stands 3.03; under `Cc1nc(C(=O)N(C2CC2)S(=O)(=O)c2ccc(C(C)(C)C)cc2)cs1` [Compound 72], 3.59.
The same measure, in the same setting: as for `Cc1nn(C)c(F)c1C(=O)N(C1CC1)S(=O)(=O)c1ccccc1` [Compound 181], the figure is 2.28; as for `COc1ccccc1S(=O)(=O)N(C(=O)c1c(C)nn(C)c1F)C1CC1` [Compound 182], 2.06.
The same measure, in the same setting: as for `Cc1ccc(S(=O)(=O)N(C(=O)c2c(C)nn(C)c2F)C2CC2)cc1` [Compound 183], the figure is 2.59; as for `COc1ccc(S(=O)(=O)N(C(=O)c2c(C)nn(C)c2F)C2CC2)cc1` [Compound 184], 2.35.
`Cc1nn(C)c(F)c1C(=O)N(C1CC1)S(=O)(=O)c1ccc([N+](=O)[O-])cc1` [Compound 185] yielded a chromatographic logP of 2.54.
The compound `Cc1nn(C)c(F)c1C(=O)N(C1CC1)S(=O)(=O)c1ccc(O)cc1` [Compound 190] showed a chromatographic logP of 2.83.
On to `Cc1nn(C)c(F)c1C(=O)N(C1CC1)S(=O)(=O)c1cc(O)ccc1O` [Compound 191], for which the chromatographic logP was 2.91.
Still for that read-out and setting: as for `Cc1nn(C)c(F)c1C(=O)N(C1CC1)S(=O)(=O)c1cc(O)cc(O)c1` [Compound 193], the figure is 3.48.
Still for that read-out and setting: under `Cc1nn(C)c(F)c1C(=O)N(C1CC1)S(=O)(=O)c1cccc([N+](=O)[O-])c1` [Compound 195] stands 2.48; under `Cc1nn(C)cc1C(=O)N(C1CC1)S(=O)(=O)c1ccccc1O` [Compound 197], 1.95; under `Cc1nn(C)c(O)c1C(=O)N(C1CC1)S(=O)(=O)c1ccccc1O` [Compound 199], 2.58.

The data set is the same for the next values; noted with them: reversed-phase HPLC column (C 18), HPLC reversed-phase C 18, method B: 40° C., 0.1% aqueous formic acid and acetonitrile, linear gradient 10% to 90% acetonitrile.
`Cc1cc(C(=O)N(C2CC2)S(=O)(=O)c2cccc(O)c2O)c(C)o1` [Compound 5] showed a chromatographic logP of 3.8.
The same measure, in the same setting: under `Cc1cc(C(=O)N(C2CC2)S(=O)(=O)c2ccc(O)c(O)c2O)c(C)o1` [Compound 6] stands 4.4; under `Cc1cc(C(=O)N(C2CC2)S(=O)(=O)c2ccc(Oc3ccc(Br)cc3)cc2)c(C)o1` [Compound 7], 4.9; under `O=C(c1ccsc1I)N(C1CC1)S(=O)(=O)c1cccc(O)c1O` [Compound 19], 3.8.
Same read-out and setting: under `O=C(c1ccsc1I)N(C1CC1)S(=O)(=O)c1ccc(Oc2ccccc2)cc1` [Compound 21] stands 4.3; under `O=C(c1ccsc1I)N(C1CC1)S(=O)(=O)c1ccc(Oc2ccc(Br)cc2)cc1` [Compound 22], 4.9; under `COc1cscc1C(=O)N(C1CC1)S(=O)(=O)c1cccc(O)c1O` [Compound 25], 3.3.
On the same count and under the same terms, as for `COc1cscc1C(=O)N(C1CC1)S(=O)(=O)c1ccc(Oc2ccccc2)cc1` [Compound 26], the figure is 3.9; as for `COc1cscc1C(=O)N(C1CC1)S(=O)(=O)c1ccc(O)c(O)c1O` [Compound 27], 3.9; as for `COc1cscc1C(=O)N(C1CC1)S(=O)(=O)c1ccc(Oc2ccc(Br)cc2)cc1` [Compound 28], 4.4.
In the case of `CCOC(=O)c1[nH]c(C)c(C(=O)N(C2CC2)S(=O)(=O)c2cccc(O)c2O)c1C` [Compound 34], the chromatographic logP stood at 3.5.
Compound `Cn1cc(C(=O)N(C2CC2)S(=O)(=O)c2cccc(O)c2O)c(C(F)(F)F)c1` [Compound 36] gave a chromatographic logP of 3.3.
`Cn1cc(C(=O)N(C2CC2)S(=O)(=O)c2ccc(O)c(O)c2O)c(C(F)(F)F)c1` [Compound 37] had a chromatographic logP of 3.9.
The same measure, in the same setting: under `Cn1cc(C(=O)N(C2CC2)S(=O)(=O)c2ccc(Oc3ccccc3)cc2)c(C(F)(F)F)c1` [Compound 38] stands 4; under `Cn1cc(C(=O)N(C2CC2)S(=O)(=O)c2ccc(Oc3ccc(Br)cc3)cc2)c(C(F)(F)F)c1` [Compound 39], 4.5; under `Cc1nc(C(F)(F)F)c(C(=O)N(C2CC2)S(=O)(=O)c2ccc(Oc3ccccc3)cc2)s1` [Compound 66], 4.4.
The compound `Cc1cc(C(=O)N(C2CC2)S(=O)(=O)c2cccc(O)c2O)nn1C` [Compound 74] yielded a chromatographic logP of 2.7.
Same read-out and setting: under `Cc1cc(C(=O)N(C2CC2)S(=O)(=O)c2ccc(O)c(O)c2O)nn1C` [Compound 75] stands 3.3.
The compound `Cc1cc(C(=O)N(C2CC2)S(=O)(=O)c2ccc(Oc3ccccc3)cc2)nn1C` [Compound 76] came in with a chromatographic logP of 3.4.
Compound `Cc1cc(C(=O)N(C2CC2)S(=O)(=O)c2ccc(Oc3ccc(Br)cc3)cc2)nn1C` [Compound 77] registered a chromatographic logP of 4.
Same read-out and setting: under `CC(C)c1nn(C)c(F)c1C(=O)N(C1CC1)S(=O)(=O)c1cccc(O)c1O` [Compound 93] stands 3.6; under `CC(C)c1nn(C)c(F)c1C(=O)N(C1CC1)S(=O)(=O)c1ccccc1O` [Compound 95], 3.1.
On the same count and under the same terms, under `CC(C)c1nn(C)c(F)c1C(=O)N(C1CC1)S(=O)(=O)c1ccc(O)cc1O` [Compound 96] stands 3.8; under `CC(C)c1nn(C)c(F)c1C(=O)N(C1CC1)S(=O)(=O)c1ccc(C(F)(F)F)cc1O` [Compound 97], 4.
`CC(C)c1nn(C)c(F)c1C(=O)N(C1CC1)S(=O)(=O)c1ccccc1C(F)(F)F` [Compound 98] registered a chromatographic logP of 3.4.
As for `Cn1nc(-c2ccccc2)c(C(=O)N(C2CC2)S(=O)(=O)c2ccc(O)c(O)c2O)c1F` [Compound 100], the chromatographic logP came out at 4.3.
Same read-out and setting: under `Cn1nc(-c2ccccc2)c(C(=O)N(C2CC2)S(=O)(=O)c2cccc(O)c2O)c1F` [Compound 101] stands 3.7; under `Cn1nc(C(F)F)c(C(=O)N(C2CC2)S(=O)(=O)c2ccccc2O)c1F` [Compound 103], 2.8; under `Cn1nc(C(F)F)c(C(=O)N(C2CC2)S(=O)(=O)c2ccc(O)cc2O)c1F` [Compound 105], 3.4.
Regarding `Cn1nc(C(F)F)c(C(=O)N(C2CC2)S(=O)(=O)c2ccccc2C(F)(F)F)c1F` [Compound 106], the chromatographic logP turned out to be 3.
Still for that read-out and setting: under `Cn1nc(C(F)F)c(C(=O)N(C2CC2)S(=O)(=O)c2ccc(Oc3ccccc3)cc2)c1F` [Compound 107] stands 3.8; under `Cn1nc(C(F)(F)F)c(C(=O)N(C2CC2)S(=O)(=O)c2ccc(O)c(O)c2O)c1F` [Compound 108], 4.1; under `CC(F)c1nn(C)cc1C(=O)N(C1CC1)S(=O)(=O)c1cccc(O)c1O` (stereo not drawn) [Compound 119], 2.8.
Consider `CC(F)c1nn(C)cc1C(=O)N(C1CC1)S(=O)(=O)c1ccc(O)c(O)c1O` (stereo not drawn) [Compound 120], for which the chromatographic logP amounted to 3.4.
Same read-out and setting: under `CC(F)c1nn(C)cc1C(=O)N(C1CC1)S(=O)(=O)c1ccc(Oc2ccccc2)cc1` (stereo not drawn) [Compound 121] stands 3.5.
`CC(F)c1nn(C)cc1C(=O)N(C1CC1)S(=O)(=O)c1ccc(Oc2ccc(Br)cc2)cc1` (stereo not drawn) [Compound 122] showed a chromatographic logP of 4.1.
